Results published in patent US20210251975A1, “USE OF CICLOPIROX FOR INHIBITING HBV CORE ASSEMBLY” (GWANGJU INSTITUTE OF SCIENCE AND TECHNOLOGY, priority 2018, published 2021).

Experiments:
HBV [1] = assay: Screening of FDA-approved drug library: quantity of released HBV DNA from HepG2.2.15 cells; assay type: cell-based, Hepatitis B virus (HBV); details: treated for 6 days
Method: (§1) After treating cells with drugs such as ciclopirox, entecavir, and/or tenofovir, the supernatant of the cells was collected. After adding to 30 μL of the supernatant 1×PBS of the same volume, 6 μL of 1 N NaOH was added. After incubation at 37° C. for 1 hour, 6 μL of Tris-HCl/HCl was added. Then, the protein was denatured by heat-treating at 98° C. for 5 minutes. After removing the denatured protein through centrifugation, the virus existing in the supernatant was quantified by real-time PCR.
For screening of a drug having inhibitory activity against HBV, an FDA-approved drug library with proven safety was used.
Specifically, after treating HBV-producing HepG2.2.15 cells with about 1,000 drugs at 1 mM every day for 3 days, the quantity of released HBV DNA was measured. After treating the cells with 19 drugs selected through the first screening for 6 days according to the same method, 13 drugs were selected by measuring HBV DNA (second screening). Entecavir, which is used as an HBV drug, was used as a positive control group.

[2] = biological target: T1, HBV core and capsid proteins (Hepatitis B virus genotype D subtype ayw, UniProt P03146); assay: Expression of core and capsid proteins (immunoblot) for the 19 screened drugs; assay type: cell-based; details: D in FIG. 1
T1 construct: expressed in transfected cells; host or cells: HepG2.2.15
Source text: (§2) Results were expressed as mean±standard deviation and tested by the Student's t-test. *: p<0.05, ** p<0.01.
It was identified to be ciclopirox.

[3] = system: core protein 149 (CP149) dimers; assay: Core assembly reaction of purified core protein 149 (CP149) dimers, incl. sucrose gradient ultracentrifugation and electron microscopy; assay type: biochemical, Hepatitis B virus (HBV)
Source text: In addition, in order to investigate whether the core assembly is inhibited and the protein remains as dimers, reaction products were separated through ultracentrifugation at different sucrose concentrations after the assembly of CP149 under the assembly reaction conditions.

HBsAg protein = assay: Secreted HBsAg protein by ELISA in HBV-expressing and HBV-overexpressing cell lines; assay type: cell-based, Hepatitis B virus (HBV); details: ciclopirox concentration gradient
Method: as §2
The secreted HBsAg protein of HBV was analyzed by enzyme-linked immunosorbent assay. Specifically, HBsAg-specific ELISA was used. A supernatant collected from the cells treated with each drug was analyzed using a kit (hepatitis B surface antigen Ab ELISA kit) according to the instruction of the manufacturer (Abnova).

HBV core protein [4] = assay: Structural analysis (crystals) of ciclopirox binding site of HBV core protein and Y118 mutation; set-up: species or system Hepatitis B virus (HBV)
Method: The secondary structure of the protein was computed using STRIDE. […] E and F in FIG. 3 show the ciclopirox-bound and ciclopirox-free sites of chains B and C.
Therefore, the ciclopirox binding site of the HBV core protein was investigated. Specifically, structural analysis of the core protein was conducted by forming crystals.

HBV [5] = assay: HBV DNA released out of or remaining in cells at ciclopirox concentration gradient; assay type: cell-based, Hepatitis B virus (HBV); details: HBV-expressing (HepG2.2.15) and HBV-overexpressing cell lines, 6 days, increasing concentration
Source text: Specifically, A and B in FIG. 5 show a result of treating HepG2.2.15 cells and HBV-expressing liver cells with ciclopirox for 6 days and investigating the decrease of HBV DNA at different concentration gradients. C and D FIG. 5 show a result of investigating the inhibitory effect of ciclopirox by extracting HBV DNA from the cells rather than the DNA secreted out of the cells. Specifically, after lysing HepG2.2.15 cells and HBV-expressing liver cells and removing […] using micrococcal nuclease, virus DNA was extracted and its expression level was investigated. As a result, it was confirmed that HBV DNA was decreased according to the concentration gradient of ciclopirox.
as §1
After treating cells with drugs such as ciclopirox, entecavir, and/or tenofovir, the cells were washed with 1×PBS. Then, after lysing the cells and treating with nuclease, HBV DNA was extracted from the cells. […]

HBV [6] = assay: HBV infection system in NTCP-HepG2 and NTCP-Huh7 cells; assay type: cell-based, Hepatitis B virus (HBV); details: NTCP-HepG2 and NTCP-Huh7, 14 days, concentration gradient
Method: Specifically, after treating HepG2 and Huh7 cell lines which express a receptor (NTCP) essential for HBV infection with ciclopirox for 6 hours, the supernatant of HepG2.2.15 cells were treated with ciclopirox. 16 hours later, after viral washing, followed by treating with ciclopirox every day for 14 days, the cells and cell supernatant were collected and analyzed. B and C in FIG. 6 show a result of investigating the expression of NTCP in the NTCP cell lines by immunoblot and flow cytometry. D to F in FIG. 6 show the HBV-inhibiting effect of ciclopirox in the virus infection system.
In addition, after treating HBV-infected liver cancer cell lines NTCP-HepG2 and NTCP-Huh7 with ciclopirox, the degree of HBV proliferation was analyzed. After pretreating the liver cancer cell lines with ciclopirox for 6 hours, the cells were incubated with ciclopirox and HBV for 16 hours. Then, the cells were analyzed after culturing for 14 days. This experimental procedure is schematically illustrated in A in FIG. 6. As shown in B and C in FIG. 6, the NTCP protein expressed from the liver cancer cells NTCP-HepG2 and NTCP-Huh7 was analyzed by immunoblot and flow cytometry.

HBV [7] = assay: Combination treatment of ciclopirox with entecavir or tenofovir in liver cancer cell lines; assay type: cell-based, Hepatitis B virus (HBV); details: ciclopirox alone or plus 1 mM ETV or 1 mM TDF
Method: After treating with ciclopirox according to a concentration gradient, 1 mM ETV or 1 mM TDF was treated in combination.
After treating cells with drugs such as ciclopirox, entecavir, and/or tenofovir, the cells were washed with 1×PBS. Then, after lysing the cells and treating with nuclease, HBV DNA was extracted from the cells. The DNA was extracted according to the instruction of the manufacturer (InvivoGen).

HBV [8] = assay: HBV-expressing mouse (hydrodynamic injection of pAAV HBV 1.2x plasmid); assay type: in vivo
Method: Specifically, after expressing HBV in mouse by injecting using a hydrodynamic injection method an HBV-expressing pAAV HBV 1.2× plasmid into the mouse tail, the drug was treated every day for 5 days.
Specifically, HBV was produced in vivo by hydrodynamically injecting an HBV-expressing plasmid into mouse tail. Then, after treating with ciclopirox alone, tenofovir alone, or a combination of ciclopirox and tenofovir every day for 5 days, the degree of proliferation of HBV in mouse serum was investigated. The experimental procedure is schematically illustrated in A in FIG. 8.

HBV core protein [9] = assay: Core assembly in core protein-expressing and entire HBV protein-expressing cell lines
Method: Specifically, the isolated Cp149 dimeric protein was incubated with a core assembly reaction buffer (150 mM NaCl, 15 mM HEPES) and the drug at 37° C. for 1 hour. Then, after separating the protein on agarose gel, immunoblot was conducted using a rabbit polyclonal anti-HBV core antibody. In addition, for isolation of the core expressed in the cells, the cells were lysed with 1% NP-40 and ultracentrifuged (55,000 rpm) at 20° C. for 8 hours. The assembled core that settled down at the bottom was separated on agarose gel and then immunoblot was conducted using a rabbit polyclonal anti-HBV core antibody.

[10] = sucrose gradient 10% to 50%, ultracentrifugation, treated vs not treated

T1 sequence (P03146 whole entry): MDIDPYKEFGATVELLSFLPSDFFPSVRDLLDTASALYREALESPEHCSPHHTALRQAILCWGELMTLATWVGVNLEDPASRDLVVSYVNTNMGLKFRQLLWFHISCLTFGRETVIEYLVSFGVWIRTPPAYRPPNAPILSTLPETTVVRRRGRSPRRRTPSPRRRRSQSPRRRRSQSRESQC

Compound: Cc1cc(C2CCCCC2)n(O)c(=O)c1 [ciclopirox]
- inhibition of released HBV DNA (second screening) (HBV [1]): consistent effects
- expression of the capsid protein [2]: remarkably inhibited
- expression of the core protein [2]: without affecting
- morphology of the assembled core (electron microscopic images) ([3]; E in FIG. 2): the size of the assembled core is enlarged by ciclopirox and the circular shape is destroyed
- assembly of the purified core protein 149 (CP149) dimers ([3]; assembly reaction buffer, 37° C., 1 hour, immunoblot): inhibited as the concentration of ciclopirox increased
- core-assembled CP149 (fractions 5-8) [3, 10]: decreased
- dimeric CP149 (fractions 1-3) [3, 10]: increased
- amount of the released HBsAg protein (HBsAg protein): no effect
- inhibition of core assembly with core protein mutated at Y118 (HBV core protein [4]; D in FIG. 3): mutation at Y118 reduces inhibition of core assembly
- binding to the HBV core protein (HBV core protein [4]; crystal structure, hexameric core protein, hydrogen bonding at tyrosine 118): binding directly to the HBV core protein
- quantity of HBV DNA released out of cells (HBV [5]): decreased
- quantity of HBV DNA remaining in cells (HBV [5]): decreased
- HBV DNA released out of the cells (HBV [6]): decrease
- HBV cccDNA remaining in the cells (HBV [6]): decrease
- HBV rcDNA remaining in the cells (HBV [6]): decrease
- quantity of the HBsAg protein secreted out of the cells (HBV [7]): No HBsAg-inhibiting effect
- HBV DNA 5 days after the treatment (HBV [8]; ciclopirox alone): almost nonexistent
- amount of HBV DNA in blood (HBV [8]; treated every day for 5 days): remarkably reduces
- amount of the HBsAg protein in blood (HBV [8]; treated every day for 5 days): no significant difference
- quantity of the HBV core protein in liver cells (HBV [8]; treated every day for 5 days): reduced
- core assembly in each cell line (HBV core protein [9]): inhibited according to the concentration gradient
